From patent US10039839B2, “Compounds that participate in cooperative binding and uses thereof” (Warp Drive Bio, Inc., priority 2015, dated 2018)
Square brackets hold non-standard residues; d marks the D form. Peptide text beside a SMILES is read from it. MeBmt = C/C=C/C[C@@H](C)[C@@H](O)[C@H](NC)C(=O)O; NMeY = CN[C@@H](Cc1ccc(O)cc1)C(=O)O; NMeF = CN[C@@H](Cc1ccccc1)C(=O)O; NMeT = CN[C@H](C(=O)O)[C@@H](C)O; NMeL = CN[C@@H](CC(C)C)C(=O)O; Tle = CC(C)(C)[C@H](N)C(=O)O; NMeNva = CCC[C@H](NC)C(=O)O; NMeV = CN[C@H](C(=O)O)C(C)C; NMeA = CN[C@@H](C)C(=O)O; dNMeA = CN[C@H](C)C(=O)O; Abu = CC[C@H](N)C(=O)O; Sar = CNCC(=O)O

Target: T1, Cyclophilin A (Homo sapiens, UniProt P62937)
T1 construct: made in house
T1 sequence (P62937 whole entry, species assumed): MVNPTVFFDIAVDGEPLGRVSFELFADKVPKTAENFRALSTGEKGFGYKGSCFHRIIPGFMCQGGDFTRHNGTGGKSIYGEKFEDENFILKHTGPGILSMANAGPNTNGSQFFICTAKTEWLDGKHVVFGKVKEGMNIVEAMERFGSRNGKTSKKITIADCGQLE
Experiment: biochemical
Type: binding
Settings: not given
Experimental: This protocol utilizes Perkin Elmers AlphaLISA technology platform to detect cyclosporine analogues by measuring the inhibition of binding of biotinylated Cyclosporin A to FLAG tagged Cyclophilin A.
Add 20 uL of 6 nM Biotinylated CsA working stock to each well of the 96-well plate. Add 1 uL of test compound (100% DMSO) to each well of the plate using the Janus MTD head and P20 tips (except control wells). Add 1 uL of DMSO to negative control wells and 1 uL of 500 uM Cyclosporin A solution to positive control wells. In the dark, add 20 uL of combined Donor/Acceptor beads to each well. Incubate in the dark for 30 minutes at room temperature. […] Incubate in the dark for 60 minutes at room temperature.

Row | SMILES | % inhibition of CsA binding to Cyclophilin A
1 | C/C=C/C[C@@H](C)[C@@H](O)[C@H]1C(=O)N[C@@H](CC)C(=O)N(C)CC(=O)N(C)CC(=O)N[C@@H](C(C)C)C(=O)N(C)CC(=O)N[C@@H](C)C(=O)N[C@H](C)C(=O)N(C)[C@@H](CC(C)C)C(=O)N(C)[C@@H](CC(C)C)C(=O)N(C)[C@@H](C(C)C)C(=O)N1C [C29] (cyclo([MeBmt][Abu][Sar][Sar]V[Sar]A[dA][NMeL][NMeL][NMeV])) | 98.77%
2 | C/C=C/C[C@@H](C)[C@@H](O)[C@H]1C(=O)N[C@@H](CC)C(=O)N(C)CC(=O)N(C)[C@@H]([C@@H](C)O)C(=O)N[C@@H](C(C)(C)C)C(=O)N(C)[C@@H](C)C(=O)N[C@@H](CC(C)C)C(=O)N[C@H](C)C(=O)N(C)[C@@H](CC(C)C)C(=O)N(C)[C@@H](CC(C)C)C(=O)N(C)[C@@H](C(C)C)C(=O)N1C [C75] (cyclo([MeBmt][Abu][Sar][NMeT][Tle][NMeA]L[dA][NMeL][NMeL][NMeV])) | 96.12%
3 | C/C=C/C[C@@H](C)[C@@H](O)[C@H]1C(=O)N[C@@H](CC)C(=O)N(C)CC(=O)N(C)[C@@H](C)C(=O)N[C@@H](C)C(=O)N(C)CC(=O)N[C@@H](C)C(=O)N[C@H](C)C(=O)N(C)[C@@H](CC(C)C)C(=O)N(C)[C@@H](CC(C)C)C(=O)N(C)[C@@H](C(C)C)C(=O)N1C [C18] (cyclo([MeBmt][Abu][Sar][NMeA]A[Sar]A[dA][NMeL][NMeL][NMeV])) | 97.88%
4 | C/C=C/C[C@@H](C)[C@@H](O)[C@H]1C(=O)N[C@@H](CC)C(=O)N(C)CC(=O)N(C)[C@H](C)C(=O)N[C@@H](CC(C)C)C(=O)N(C)[C@@H](C)C(=O)N[C@@H](C)C(=O)N[C@H](C)C(=O)N(C)[C@@H](CC(C)C)C(=O)N(C)[C@@H](CC(C)C)C(=O)N(C)[C@@H](C(C)C)C(=O)N1C [C11] (cyclo([MeBmt][Abu][Sar][dNMeA]L[NMeA]A[dA][NMeL][NMeL][NMeV])) | 93.73%
5 | C/C=C/C[C@@H](C)[C@@H](O)[C@H]1C(=O)N[C@@H](CC)C(=O)N(C)CC(=O)N(C)[C@@H](CCC)C(=O)N[C@@H](C(C)C)C(=O)N(C)[C@@H](CC(C)C)C(=O)N[C@@H](CC)C(=O)N[C@H](C)C(=O)N(C)[C@@H](CC(C)C)C(=O)N(C)[C@@H](CC(C)C)C(=O)N(C)[C@@H](C(C)C)C(=O)N1C [C102] (cyclo([Abu][Sar][NMeNva]V[NMeL][Abu][dA][NMeL][NMeL][NMeV][MeBmt])) | 99.30%
6 | C/C=C/C[C@@H](C)[C@@H](O)[C@H]1C(=O)N[C@@H](CC)C(=O)N(C)CC(=O)N(C)[C@@H](Cc2ccc(O)cc2)C(=O)N[C@@H](C(C)C)C(=O)N(C)[C@@H](CC(C)C)C(=O)N[C@@H](CC)C(=O)N[C@H](C)C(=O)N(C)[C@@H](CC(C)C)C(=O)N(C)[C@@H](CC(C)C)C(=O)N(C)[C@@H](C(C)C)C(=O)N1C [C100] (cyclo([Abu][Sar][NMeY]V[NMeL][Abu][dA][NMeL][NMeL][NMeV][MeBmt])) | 95.72%
7 | C/C=C/C[C@@H](C)[C@@H](O)[C@H]1C(=O)N[C@@H](CC)C(=O)N(C)CC(=O)N(C)[C@@H](CC(C)C)C(=O)N[C@@H](CC(C)C)C(=O)N(C)[C@@H](C)C(=O)N[C@@H](C)C(=O)N[C@H](C)C(=O)N(C)[C@@H](CC(C)C)C(=O)N(C)[C@@H](CC(C)C)C(=O)N(C)[C@@H](C(C)C)C(=O)N1C [C14] (cyclo([MeBmt][Abu][Sar][NMeL]L[NMeA]A[dA][NMeL][NMeL][NMeV])) | 90.64%
8 | C/C=C/C[C@@H](C)[C@@H](O)[C@H]1C(=O)N[C@@H](CC)C(=O)N(C)CC(=O)N(C)[C@@H](Cc2ccccc2)C(=O)N[C@@H](C(C)C)C(=O)N(C)CC(=O)N[C@@H](C)C(=O)N[C@H](C)C(=O)N(C)[C@@H](CC(C)C)C(=O)N(C)[C@@H](CC(C)C)C(=O)N(C)[C@@H](C(C)C)C(=O)N1C [C28] (cyclo([MeBmt][Abu][Sar][NMeF]V[Sar]A[dA][NMeL][NMeL][NMeV])) | 98.94%
9 | C/C=C/C[C@@H](C)[C@@H](O)[C@H]1C(=O)N[C@@H](CC)C(=O)N(C)CC(=O)N(C)[C@H](C)C(=O)N[C@@H](C(C)C)C(=O)N(C)CC(=O)N[C@@H](C)C(=O)N[C@H](C)C(=O)N(C)[C@@H](CC(C)C)C(=O)N(C)[C@@H](CC(C)C)C(=O)N(C)[C@@H](C(C)C)C(=O)N1C [C27] (cyclo([MeBmt][Abu][Sar][dNMeA]V[Sar]A[dA][NMeL][NMeL][NMeV])) | 94.73%
10 | C/C=C/C[C@@H](C)[C@@H](O)[C@H]1C(=O)N[C@@H](CC)C(=O)N(C)CC(=O)N(C)[C@H](C)C(=O)N[C@@H](C(C)C)C(=O)N(C)[C@@H](CC(C)C)C(=O)N[C@@H](CC(C)C)C(=O)N[C@H](C)C(=O)N(C)[C@@H](CC(C)C)C(=O)N(C)[C@@H](CC(C)C)C(=O)N(C)[C@@H](C(C)C)C(=O)N1C [C47] (cyclo([MeBmt][Abu][Sar][dNMeA]V[NMeL]L[dA][NMeL][NMeL][NMeV])) | 95.71%

Same assay, conditions: read-out: IC50 value of CsA binding to Cyclophilin A

Row | SMILES | IC50
11 | C/C=C/C[C@@H](C)[C@@H](O)[C@H]1C(=O)N[C@@H](CC)C(=O)N(C)CC(=O)N(C)[C@H](C)C(=O)N[C@@H](CC(C)C)C(=O)N(C)[C@@H](C)C(=O)N[C@@H](C)C(=O)N[C@H](C)C(=O)N(C)[C@@H](CC(C)C)C(=O)N(C)[C@@H](CC(C)C)C(=O)N(C)[C@@H](C(C)C)C(=O)N1C [C11] (cyclo([MeBmt][Abu][Sar][dNMeA]L[NMeA]A[dA][NMeL][NMeL][NMeV])) | < 2000 nM
12 | C/C=C/C[C@@H](C)[C@@H](O)[C@H]1C(=O)N[C@@H](CC)C(=O)N(C)CC(=O)N(C)[C@H](C)C(=O)N[C@@H](C(C)C)C(=O)N(C)[C@@H](CC(C)C)C(=O)N[C@@H](CC(C)C)C(=O)N[C@H](C)C(=O)N(C)[C@@H](CC(C)C)C(=O)N(C)[C@@H](CC(C)C)C(=O)N(C)[C@@H](C(C)C)C(=O)N1C [C47] (cyclo([MeBmt][Abu][Sar][dNMeA]V[NMeL]L[dA][NMeL][NMeL][NMeV])) | < 2000 nM
